Source: patent publication US8987302B2, “Treatment of hepatitis C virus related diseases using hydroxychloroquine or a combination of hydroxychloroquine and an anti-viral agent” (Panmed Ltd., priority 2010, dated 2015)

Legend:
[1] = system: HCV genotype 1b replicon; experiment: HCV RNA replication in Huh7 replicon cells (RT-PCR), single drugs and combinations; assay type: cell-based, hepatitis C virus; details: alone, 72 hours
[2] = system: JFH1/CsN6A4 infected Huh7 cells; experiment: Microarray gene expression in JFH1/CsN6A4 infected Huh7 cells; details: for expression of genes involved in the IFN signaling / number of the 118 HCV modulated genes down-regulated (FC≦0.5) by both compounds / number of the 118 HCV modulated genes up-regulated (FC≧2) by both compounds: 48 hours treatment; for expression of genes involved in the IFN signaling: IFN 100IU; for Number of genes modulated by both HCQ and CQ, Down-regulated / Number of genes modulated by both HCQ and CQ, Up-regulated: 40 μM; for Number of genes modulated by both HCQ and CQ, Down-regulated: FC≦0.5; for Number of genes modulated by both HCQ and CQ, Up-regulated: FC≧2
[3] = system: replicon cells; experiment: Cytotoxicity, MTS assay of replicon cells; details: tested doses, 72 hours
[4] = system: Huh 5-2 cells; details: 6.6 μM; cited from earlier work
[5] = system: Huh7 harboring replicon cells; experiment: Microarray gene expression in Huh7 harboring replicon cells; assay type: cell-based, Human; details: 10 μM
[6] = system: HCV replicon-Huh-7/neo cells; experiment: Replication levels of HCV replicon by NPTII quantification; details: 0.5, 1 or 10 μM, 72 hours
[7] = system: NiV; details: hamster, in vivo; cited from earlier work
[8] = system: HeV; details: hamster, in vivo; cited from earlier work
[9] = 48 h of antiviral treatment, vs untreated infected cells
[10] = after either 12 hours or 48 hours of treatment
[11] = cut-off at 12 hours and 24 hours

Question: For IFNα, which “HCV RNA replication” value [1] is on record?
Answer: The value was “inhibited HCV RNA replication in a dose dependent manner”.

Question: What about the “Fold Change, AMBRA1” value [2, 9] of the same molecule?
Answer: Its value is 0.4.

Question: And the “Fold Change, ATF2” value [2, 9]?
Answer: Its value is 0.4.

Question: And the “Fold Change, ATF3” value [2, 9]?
Answer: Its value is 0.2.

Question: And the “Fold Change, ATF4” value [2, 9]?
Answer: Its value is 0.5.

Question: What about the “Fold Change, ATF7IP” value [2, 9] of the same molecule?
Answer: Its value is 0.4.

Question: What about the “Fold Change, ATG2A” value [2, 9] of the same molecule?
Answer: The value was 0.3.

Question: What about the “Fold Change, ATG4B” value [2, 9] of the same molecule?
Answer: Its value is 1.3.

Question: And the “Fold Change, ATG7” value [2, 9]?
Answer: Its value is 0.9.

Question: And the “Fold Change, ATG12” value [2, 9]?
Answer: The value was 0.8.

Question: And the “Fold Change, BBC3” value [2, 9]?
Answer: Its value is 0.1.

Question: And the “Fold Change, BCL3” value [2, 9]?
Answer: Its value is 0.4.

Question: And the “Fold Change, BECN1” value [2, 9]?
Answer: Its value is 1.4.

Question: What about the “Fold Change, BMF” value [2, 9] of the same molecule?
Answer: The value was 0.2.

Question: What about the “Fold Change, CXCL5” value [2, 9] of the same molecule?
Answer: The value was 1.3.

Question: And the “Fold Change, CYP1A1” value [2, 9]?
Answer: The value was 0.4.

Question: What about the “Fold Change, CYR61” value [2, 9] of the same molecule?
Answer: Its value is 0.2.

Question: What about the “Fold Change, DAPK3” value [2, 9] of the same molecule?
Answer: Its value is 0.3.

Question: And the “Fold Change, DDIT3” value [2, 9]?
Answer: Its value is 0.1.

Question: What about the “Fold Change, DDIT4” value [2, 9] of the same molecule?
Answer: The value was 0.3.

Question: What about the “Fold Change, DUSP1” value [2, 9] of the same molecule?
Answer: Its value is 0.1.

Question: What about the “Fold Change, DUSP4” value [2, 9] of the same molecule?
Answer: Its value is 0.2.

Question: And the “Fold Change, DUSP8” value [2, 9]?
Answer: The value was 0.1.

Question: And the “Fold Change, FOXO3” value [2, 9]?
Answer: Its value is 0.5.

Question: And the “Fold Change, GABARAPL1” value [2, 9]?
Answer: The value was 0.4.

Question: What about the “Fold Change, GADD45A” value [2, 9] of the same molecule?
Answer: Its value is 0.2.

Question: What about the “Fold Change, GADD45B” value [2, 9] of the same molecule?
Answer: The value was 0.1.

Question: And the “Fold Change, GADD45G” value [2, 9]?
Answer: The value was 0.3.

Question: And the “Fold Change, HRK” value [2, 9]?
Answer: Its value is 0.7.

Question: What about the “Fold Change, ICAM1” value [2, 9] of the same molecule?
Answer: The value was 2.0.

Question: And the “Fold Change, IKBKAP” value [2, 9]?
Answer: Its value is 1.3.

Question: What about the “Fold Change, JUN” value [2, 9] of the same molecule?
Answer: The value was 0.2.

Question: And the “Fold Change, MAP1LC3B” value [2, 9]?
Answer: The value was 0.4.

Question: What about the “Fold Change, MYC” value [2, 9] of the same molecule?
Answer: The value was 0.3.

Question: And the “Fold Change, NFKB1” value [2, 9]?
Answer: Its value is 0.8.

Question: What about the “Fold Change, NFKBIA” value [2, 9] of the same molecule?
Answer: Its value is 0.3.

Question: What about the “Fold Change, NFKBIB” value [2, 9] of the same molecule?
Answer: The value was 0.4.

Question: And the “Fold Change, NFKBIE” value [2, 9]?
Answer: Its value is 0.3.

Question: What about the “Fold Change, NFKBIL2” value [2, 9] of the same molecule?
Answer: Its value is 1.5.

Question: What about the “Fold Change, NKIRAS1” value [2, 9] of the same molecule?
Answer: Its value is 0.4.

Question: What about the “Fold Change, NKIRAS2” value [2, 9] of the same molecule?
Answer: The value was 1.0.

Question: What about the “Fold Change, NKRF” value [2, 9] of the same molecule?
Answer: The value was 1.0.

Question: What about the “Fold Change, PDRG1” value [2, 9] of the same molecule?
Answer: Its value is 0.6.

Question: What about the “Fold Change, PIK3C3” value [2, 9] of the same molecule?
Answer: Its value is 0.5.

Question: And the “Fold Change, PRKAA1” value [2, 9]?
Answer: Its value is 0.3.

Question: What about the “Fold Change, RELB” value [2, 9] of the same molecule?
Answer: The value was 0.4.

Question: And the “Fold Change, SESN2” value [2, 9]?
Answer: The value was 0.2.

Question: And the “Fold Change, SIRT1” value [2, 9]?
Answer: The value was 0.5.

Question: And the “Fold Change, SQSTM1” value [2, 9]?
Answer: The value was 0.5.

Question: What about the “Fold Change, STK11” value [2, 9] of the same molecule?
Answer: Its value is 0.9.

Question: What about the “Fold Change, TANK” value [2, 9] of the same molecule?
Answer: Its value is 1.2.

Question: And the “Fold Change, TNFRSF10B” value [2, 9]?
Answer: The value was 0.6.

Question: What about the “Fold Change, TRAF2” value [2, 9] of the same molecule?
Answer: Its value is 0.7.

Question: And the “Fold Change, TRAF4” value [2, 9]?
Answer: The value was 0.7.

Question: What about the “Fold Change, TSC1” value [2, 9] of the same molecule?
Answer: The value was 0.6.

Question: And the “Fold Change, TSC2” value [2, 9]?
Answer: Its value is 0.9.

Question: And the “Fold Change, UBD” value [2, 9]?
Answer: Its value is 0.8.

Question: And the “Fold Change, ULK1” value [2, 9]?
Answer: The value was 0.3.

Question: And the “expression of genes involved in the IFN signaling” value [2]?
Answer: The value was “significantly increased”.

Question: And the cell viability [3]?
Answer: Its cell viability is “not affected”.

Question: With `CCN(CCO)CCCC(C)Nc1ccnc2cc(Cl)ccc12` (stereo not drawn) [HCQ, 2-[[4-[(7-chloro-4-quinolinyl)amino]pentyl]ethylamino]ethanol, reference compound] as the molecule, how does the “HCV RNA replication” value [1] read?
Answer: Its value is “inhibited HCV RNA replication in a dose dependent manner”.

Question: And the “cell growth with respect to the untreated control” value [4]?
Answer: The value was “more than 81%”.

Question: And the “Number of genes modulated by both HCQ and CQ, Down-regulated” value (“Number of genes modulated … Down-regulated” below) ([2]; 12 h)?
Answer: Its value is 9.

Question: And the “Number of genes modulated by both HCQ and CQ, Up-regulated” value (shortened to “Number of genes modulated … Up-regulated”) ([2]; 12 h)?
Answer: Its value is 38.

Question: What about the “Number of genes modulated … Down-regulated” value ([2]; 48 h) of the same molecule?
Answer: The value was 262.

Question: And the “Number of genes modulated … Up-regulated” value ([2]; 48 h)?
Answer: The value was 24.

Question: What about the “Number of genes Induced by JFH1 infection and Down-regulated by treatment” value ([2]; 48 h) of the same molecule?
Answer: The value was 104.

Question: And the “Number of genes Induced by JFH1 infection and Up-regulated by treatment” value ([2]; 48 h)?
Answer: Its value is 1.

Question: What about the “Number of genes Repressed by JFH1 infection and Down-regulated by treatment” value ([2]; 48 h) of the same molecule?
Answer: The value was 2.

Question: And the “Number of genes Repressed by JFH1 infection and Up-regulated by treatment” value ([2]; 48 h)?
Answer: Its value is 11.

Question: What about the “number of the 118 HCV modulated genes down-regulated (FC≦0.5) by both compounds” value [2] of the same molecule?
Answer: The value was 106.

Question: What about the “number of the 118 HCV modulated genes up-regulated (FC≧2) by both compounds” value [2] of the same molecule?
Answer: Its value is 12.

Question: And the “expression of genes involved in the IFN signaling” value [2]?
Answer: The value was “None of the genes regulated by IFN were found to be modulated”.

Question: And the “genes significantly down-modulated in common with HCQ and CQ” value [2, 10]?
Answer: The value was 271 genes.

Question: And the “genes significantly up-regulated in common with HCQ and CQ” value [2, 10]?
Answer: Its value is 62 genes.

Question: And the “Number of genes transcriptionally modulated, Down-regulated” value ([5]; 6 hours)?
Answer: The value was 5.

Question: And the “Number of genes transcriptionally modulated, Down-regulated” value ([5]; 12 hours)?
Answer: Its value is 30.

Question: What about the “Number of genes transcriptionally modulated, Up-regulated” value ([5]; 12 hours) of the same molecule?
Answer: The value was 7.

Question: And the “Number of genes transcriptionally modulated, Down-regulated” value ([5]; 24 hours)?
Answer: Its value is 63.

Question: What about the “Number of genes transcriptionally modulated, Up-regulated” value ([5]; 24 hours) of the same molecule?
Answer: The value was 23.

Question: And the “number of significantly repressed genes (FC≦0.5) among the 23 modulated genes” value [5, 11]?
Answer: The value was 20.

Question: And the “number of up-regulated genes (FC≧2) among the 23 modulated genes” value [5, 11]?
Answer: The value was 3.

Question: And the “replication level of HCV replicon (% NPTII), number of HCV infected cells” value [6]?
Answer: The value was “dose-dependent decrease”.

Question: With `CCN(CC)CCCC(C)Nc1ccnc2cc(Cl)ccc12` (stereo not drawn) [CQ, chloroquine] as the molecule, how does the protection of hamsters [7] read?
Answer: The protection of hamsters was “did not protect hamsters”.

Question: And the “HCV RNA replication” value [1]?
Answer: Its value is “inhibited HCV RNA replication”.

Question: And the “Number of genes modulated … Down-regulated” value ([2]; 12 h)?
Answer: Its value is 9.

Question: What about the “Number of genes modulated … Up-regulated” value ([2]; 12 h) of the same molecule?
Answer: The value was 38.

Question: And the “Number of genes modulated … Down-regulated” value ([2]; 48 h)?
Answer: The value was 262.

Question: And the “Number of genes modulated … Up-regulated” value ([2]; 48 h)?
Answer: Its value is 24.

Question: And the “Number of genes Induced by JFH1 infection and Down-regulated by treatment” value ([2]; 48 h)?
Answer: The value was 104.

Question: What about the “Number of genes Induced by JFH1 infection and Up-regulated by treatment” value ([2]; 48 h) of the same molecule?
Answer: Its value is 1.

Question: What about the “Number of genes Repressed by JFH1 infection and Down-regulated by treatment” value ([2]; 48 h) of the same molecule?
Answer: The value was 2.

Question: And the “Number of genes Repressed by JFH1 infection and Up-regulated by treatment” value ([2]; 48 h)?
Answer: Its value is 11.

Question: What about the “number of the 118 HCV modulated genes down-regulated (FC≦0.5) by both compounds” value [2] of the same molecule?
Answer: Its value is 106.

Question: What about the “number of the 118 HCV modulated genes up-regulated (FC≧2) by both compounds” value [2] of the same molecule?
Answer: The value was 12.

Question: What about the “genes significantly up-regulated in common with HCQ and CQ” value [2, 10] of the same molecule?
Answer: The value was 62 genes.

Question: What about the protection of hamsters [8] of the same molecule?
Answer: The protection of hamsters was “did not protect hamsters”.

Question: Which “delay of death from viral disease” value [7] does the source give for `NC(=O)c1ncn([C@@H]2O[C@H](CO)[C@@H](O)[C@H]2O)n1` [Ribavirin, ribavirin] here?
Answer: The value was “approximately 5 days”.

Question: What about the “effect on death from viral disease” value [8] of the same molecule?
Answer: Its value is “no significant effect”.
